In patent US11945813B2, “5-substituted 4-amino-1H-benzo[c][1,2,6]thiadiazine 2,2-dioxides and formulations and uses thereof” (Firmenich Incorporated, priority 2018, dated 2024):

Molecular target: T1, T1R2/T1R3 taste receptor (Homo sapiens, UniProt Q8TE23)
T1 sequence (Q8TE23 20-839): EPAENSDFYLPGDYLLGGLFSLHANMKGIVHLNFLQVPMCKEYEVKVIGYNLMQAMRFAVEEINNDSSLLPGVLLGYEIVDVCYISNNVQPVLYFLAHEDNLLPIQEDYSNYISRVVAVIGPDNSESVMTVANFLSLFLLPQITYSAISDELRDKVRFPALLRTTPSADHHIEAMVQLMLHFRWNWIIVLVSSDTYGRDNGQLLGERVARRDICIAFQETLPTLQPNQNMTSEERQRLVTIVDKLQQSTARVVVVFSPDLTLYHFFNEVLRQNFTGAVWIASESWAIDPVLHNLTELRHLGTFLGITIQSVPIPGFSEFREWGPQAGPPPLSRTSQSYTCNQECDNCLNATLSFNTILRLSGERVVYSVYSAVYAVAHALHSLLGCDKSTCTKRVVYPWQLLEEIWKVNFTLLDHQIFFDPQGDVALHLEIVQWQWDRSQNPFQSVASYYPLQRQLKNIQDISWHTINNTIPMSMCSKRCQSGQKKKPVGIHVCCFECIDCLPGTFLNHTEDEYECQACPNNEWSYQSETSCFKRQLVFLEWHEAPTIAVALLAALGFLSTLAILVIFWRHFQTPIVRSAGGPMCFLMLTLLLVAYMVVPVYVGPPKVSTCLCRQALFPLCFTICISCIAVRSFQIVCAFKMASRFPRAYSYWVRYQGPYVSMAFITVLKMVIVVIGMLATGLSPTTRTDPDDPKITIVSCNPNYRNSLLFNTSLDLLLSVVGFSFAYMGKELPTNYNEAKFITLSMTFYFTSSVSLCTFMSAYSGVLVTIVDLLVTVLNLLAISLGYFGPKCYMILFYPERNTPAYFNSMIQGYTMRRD
T1 sequence (Q7RTX0 21-852 partner): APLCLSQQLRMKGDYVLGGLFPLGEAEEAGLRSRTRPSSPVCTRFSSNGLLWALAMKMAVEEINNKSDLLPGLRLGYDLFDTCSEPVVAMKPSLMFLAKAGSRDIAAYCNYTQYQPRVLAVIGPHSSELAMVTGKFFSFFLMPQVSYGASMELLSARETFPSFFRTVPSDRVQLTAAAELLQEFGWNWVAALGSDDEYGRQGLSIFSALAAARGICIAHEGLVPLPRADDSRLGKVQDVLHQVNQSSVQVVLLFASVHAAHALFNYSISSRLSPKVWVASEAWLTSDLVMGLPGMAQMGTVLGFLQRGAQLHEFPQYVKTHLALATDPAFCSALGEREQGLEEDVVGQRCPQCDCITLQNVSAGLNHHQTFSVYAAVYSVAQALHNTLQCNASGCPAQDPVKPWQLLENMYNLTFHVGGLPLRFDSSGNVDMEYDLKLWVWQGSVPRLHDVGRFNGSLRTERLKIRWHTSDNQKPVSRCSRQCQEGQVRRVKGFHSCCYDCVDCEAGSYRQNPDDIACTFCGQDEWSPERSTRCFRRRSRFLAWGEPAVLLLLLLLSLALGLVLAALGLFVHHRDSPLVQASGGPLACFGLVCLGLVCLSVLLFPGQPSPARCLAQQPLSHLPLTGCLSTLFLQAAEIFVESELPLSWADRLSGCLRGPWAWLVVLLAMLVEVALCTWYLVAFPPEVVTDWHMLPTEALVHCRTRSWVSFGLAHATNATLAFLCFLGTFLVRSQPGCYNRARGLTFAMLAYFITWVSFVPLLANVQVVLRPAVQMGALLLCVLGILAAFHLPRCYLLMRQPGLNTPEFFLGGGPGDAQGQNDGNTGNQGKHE
Assay: Receptor-based assay: sweetener EC50 alone and with test compound (enhancement ratio)
Assay type: cell-based
Conditions: for Fructose Enhancement EC50 Ratio: sweetener fructose; for Sucralose Enhancement EC50 Ratio: sweetener sucralose; for Sucrose Enhancement EC50 Ratio: sweetener sucrose
Procedure, shortened: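 Sucrose, sucralose or fructose EC50 measured on human T1R2/T1R3, alone and with 3, 10 or 50 μM test compound. Enhancement is the EC50 ratio without/with compound, binned A >20, B 10-20, C >1 to <10.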

Structure (SMILES)	Fructose Enhancement EC50 Ratio (10 μM test compound)	Fructose Enhancement EC50 Ratio (50 μM test compound)	Sucralose Enhancement EC50 Ratio (10 μM test compound)	Sucralose Enhancement EC50 Ratio (50 μM test compound)	Sucrose Enhancement EC50 Ratio (3 μM test compound)	Sucrose Enhancement EC50 Ratio (10 μM test compound)	Sucrose Enhancement EC50 Ratio (50 μM test compound)
NC1=NS(=O)(=O)Nc2cccc(OC[C@H]3CCCN(c4cccc(C(=O)N5CCCC5)n4)C3)c21 [Compound 412]	C (A “C” value indicates an enhancement ratio greater than 1 and less than 10)	C (A “C” value indicates an enhancement ratio greater than 1 and less than 10)	A (An “A” value indicates an enhancement ratio of greater than 20)	A (An “A” value indicates an enhancement ratio of greater than 20)	C (A “C” value indicates an enhancement ratio greater than 1 and less than 10)	C (A “C” value indicates an enhancement ratio greater than 1 and less than 10)	B (A “B” value indicates an enhancement ratio from 10 to 20)
NC1=NS(=O)(=O)Nc2cccc(OC[C@H]3CCCN(c4cccc(C(=O)N5CCCCC5)n4)C3)c21 [Compound 413]	–	C (A “C” value indicates an enhancement ratio greater than 1 and less than 10)	B (A “B” value indicates an enhancement ratio from 10 to 20)	A (An “A” value indicates an enhancement ratio of greater than 20)	C (A “C” value indicates an enhancement ratio greater than 1 and less than 10)	C (A “C” value indicates an enhancement ratio greater than 1 and less than 10)	C (A “C” value indicates an enhancement ratio greater than 1 and less than 10)
NC1=NS(=O)(=O)Nc2cccc(OC[C@H]3CCCN(c4cccc(C(=O)N5CCOCC5)n4)C3)c21 [Compound 414]	C (A “C” value indicates an enhancement ratio greater than 1 and less than 10)	C (A “C” value indicates an enhancement ratio greater than 1 and less than 10)	A (An “A” value indicates an enhancement ratio of greater than 20)	–	C (A “C” value indicates an enhancement ratio greater than 1 and less than 10)	C (A “C” value indicates an enhancement ratio greater than 1 and less than 10)	B (A “B” value indicates an enhancement ratio from 10 to 20)
CN1CCN(C(=O)c2cccc(N3CCC[C@H](COc4cccc5c4C(N)=NS(=O)(=O)N5)C3)n2)CC1 [Compound 415]	C (A “C” value indicates an enhancement ratio greater than 1 and less than 10)	C (A “C” value indicates an enhancement ratio greater than 1 and less than 10)	–	A (An “A” value indicates an enhancement ratio of greater than 20)	C (A “C” value indicates an enhancement ratio greater than 1 and less than 10)	C (A “C” value indicates an enhancement ratio greater than 1 and less than 10)	C (A “C” value indicates an enhancement ratio greater than 1 and less than 10)
CC(C)CNC(=O)c1cccc(N2CCC[C@H](COc3cccc4c3C(N)=NS(=O)(=O)N4)C2)n1 [Compound 416]	–	C (A “C” value indicates an enhancement ratio greater than 1 and less than 10)	A (An “A” value indicates an enhancement ratio of greater than 20)	A (An “A” value indicates an enhancement ratio of greater than 20)	C (A “C” value indicates an enhancement ratio greater than 1 and less than 10)	C (A “C” value indicates an enhancement ratio greater than 1 and less than 10)	B (A “B” value indicates an enhancement ratio from 10 to 20)
NC1=NS(=O)(=O)Nc2cccc(OC[C@H]3CCCN(c4cccc(C(=O)NCC5CC5)n4)C3)c21 [Compound 417]	–	C (A “C” value indicates an enhancement ratio greater than 1 and less than 10)	A (An “A” value indicates an enhancement ratio of greater than 20)	A (An “A” value indicates an enhancement ratio of greater than 20)	C (A “C” value indicates an enhancement ratio greater than 1 and less than 10)	C (A “C” value indicates an enhancement ratio greater than 1 and less than 10)	C (A “C” value indicates an enhancement ratio greater than 1 and less than 10)
NC1=NS(=O)(=O)Nc2cccc(OC[C@H]3CCCN(c4cccc(C(=O)NCC5CCCCC5)n4)C3)c21 [Compound 418]	–	–	B (A “B” value indicates an enhancement ratio from 10 to 20)	A (An “A” value indicates an enhancement ratio of greater than 20)	C (A “C” value indicates an enhancement ratio greater than 1 and less than 10)	C (A “C” value indicates an enhancement ratio greater than 1 and less than 10)	C (A “C” value indicates an enhancement ratio greater than 1 and less than 10)
CNC(=O)c1ccc(N2CCC[C@H](COc3cccc4c3C(N)=NS(=O)(=O)N4)C2)nc1 [Compound 500]	–	–	A (An “A” value indicates an enhancement ratio of greater than 20)	A (An “A” value indicates an enhancement ratio of greater than 20)	C (A “C” value indicates an enhancement ratio greater than 1 and less than 10)	C (A “C” value indicates an enhancement ratio greater than 1 and less than 10)	C (A “C” value indicates an enhancement ratio greater than 1 and less than 10)
CCNC(=O)c1ccc(N2CCC[C@H](COc3cccc4c3C(N)=NS(=O)(=O)N4)C2)nc1 [Compound 501]	C (A “C” value indicates an enhancement ratio greater than 1 and less than 10)	C (A “C” value indicates an enhancement ratio greater than 1 and less than 10)	A (An “A” value indicates an enhancement ratio of greater than 20)	A (An “A” value indicates an enhancement ratio of greater than 20)	C (A “C” value indicates an enhancement ratio greater than 1 and less than 10)	C (A “C” value indicates an enhancement ratio greater than 1 and less than 10)	C (A “C” value indicates an enhancement ratio greater than 1 and less than 10)
CCCNC(=O)c1ccc(N2CCC[C@H](COc3cccc4c3C(N)=NS(=O)(=O)N4)C2)nc1 [Compound 502]	C (A “C” value indicates an enhancement ratio greater than 1 and less than 10)	C (A “C” value indicates an enhancement ratio greater than 1 and less than 10)	A (An “A” value indicates an enhancement ratio of greater than 20)	A (An “A” value indicates an enhancement ratio of greater than 20)	C (A “C” value indicates an enhancement ratio greater than 1 and less than 10)	C (A “C” value indicates an enhancement ratio greater than 1 and less than 10)	C (A “C” value indicates an enhancement ratio greater than 1 and less than 10)
